Experimental data reported in ChEMBL document CHEMBL1201862, “PubChem BioAssay data set” (2004).
Activity calls are given as the source filed them.

Legend:
[1] = target: T1, Beta-2 adrenergic receptor (Homo sapiens, UniProt P07550); assay: Dose response for HTS for Beta-2AR agonists via FAP method from Powderset1.; assay type: functional
[2] = target: T1, Beta-2 adrenergic receptor; assay: ADRB2 activation measured by internalization – cell-based, FAP fluorogen, flow cytometry, cherry pick 1, dose response (AID 588763); assay type: functional
[3] = target: Dual specificity protein phosphatase 3 (Homo sapiens, UniProt P51452); assay: VHR phosphatase inhibition, dose response, selectivity assay for STEP inhibitor project, biochemical (AID 602374); assay type: functional; details: read-out: IC50_Mean
Chain of Dual specificity protein phosphatase 3 (P51452 whole entry): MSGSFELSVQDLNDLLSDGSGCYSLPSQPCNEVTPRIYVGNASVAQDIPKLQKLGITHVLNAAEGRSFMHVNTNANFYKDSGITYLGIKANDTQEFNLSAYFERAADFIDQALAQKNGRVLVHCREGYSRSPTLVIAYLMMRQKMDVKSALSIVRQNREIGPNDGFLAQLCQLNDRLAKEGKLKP

[4] = target: Tyrosine-protein phosphatase non-receptor type 11 (Homo sapiens, UniProt Q06124); assay: PTPN11 enzyme inhibitors – biochemical, selectivity assay for STEP inhibitor project, dose response (AID 602367); assay type: functional; details: read-out: IC50_Mean
Chain of Tyrosine-protein phosphatase non-receptor type 11 (Q06124 whole entry): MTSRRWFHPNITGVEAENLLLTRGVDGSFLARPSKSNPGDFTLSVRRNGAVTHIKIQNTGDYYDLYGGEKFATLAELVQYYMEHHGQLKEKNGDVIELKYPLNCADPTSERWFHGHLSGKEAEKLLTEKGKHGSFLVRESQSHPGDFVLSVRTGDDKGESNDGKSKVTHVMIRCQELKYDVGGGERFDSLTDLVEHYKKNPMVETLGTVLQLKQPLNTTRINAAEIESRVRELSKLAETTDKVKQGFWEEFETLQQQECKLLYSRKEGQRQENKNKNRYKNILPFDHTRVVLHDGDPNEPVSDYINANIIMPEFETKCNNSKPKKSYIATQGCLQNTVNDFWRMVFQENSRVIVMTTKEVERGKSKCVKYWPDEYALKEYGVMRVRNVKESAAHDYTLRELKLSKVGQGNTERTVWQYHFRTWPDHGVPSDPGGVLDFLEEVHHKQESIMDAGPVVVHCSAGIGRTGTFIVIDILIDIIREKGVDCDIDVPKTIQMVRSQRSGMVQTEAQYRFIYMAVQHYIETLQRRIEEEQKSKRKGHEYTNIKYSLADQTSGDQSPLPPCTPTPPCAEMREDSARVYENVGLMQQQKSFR

[5] = target: Tyrosine-protein phosphatase non-receptor type 5 (Homo sapiens, UniProt P54829); assay: PTPN5 enzyme inhibition – biochemical, fluorescence intensity, uHTS hits, confirmation (AID 602372); assay type: functional; details: read-out: IC50_Mean
Chain of Tyrosine-protein phosphatase non-receptor type 5 (P54829 whole entry): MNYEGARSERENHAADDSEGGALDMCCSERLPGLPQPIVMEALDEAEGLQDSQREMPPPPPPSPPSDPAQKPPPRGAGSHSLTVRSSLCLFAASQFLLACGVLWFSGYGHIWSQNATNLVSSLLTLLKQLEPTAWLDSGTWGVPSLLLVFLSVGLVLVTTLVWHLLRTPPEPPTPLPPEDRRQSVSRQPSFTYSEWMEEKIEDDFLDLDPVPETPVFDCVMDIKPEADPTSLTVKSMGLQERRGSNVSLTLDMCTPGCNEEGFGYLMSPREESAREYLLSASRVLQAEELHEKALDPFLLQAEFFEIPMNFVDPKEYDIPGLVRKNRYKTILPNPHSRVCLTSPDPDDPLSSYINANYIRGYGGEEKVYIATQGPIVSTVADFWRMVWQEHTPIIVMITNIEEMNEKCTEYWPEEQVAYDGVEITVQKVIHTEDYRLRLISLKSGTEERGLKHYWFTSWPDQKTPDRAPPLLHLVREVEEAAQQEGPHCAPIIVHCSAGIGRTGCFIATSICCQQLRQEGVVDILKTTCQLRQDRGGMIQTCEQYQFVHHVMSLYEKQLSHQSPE

[6] = target: T2, Sentrin-specific protease 8 (Homo sapiens, UniProt Q96LD8); assay type: functional
T2 sequence (Q96LD8 whole entry): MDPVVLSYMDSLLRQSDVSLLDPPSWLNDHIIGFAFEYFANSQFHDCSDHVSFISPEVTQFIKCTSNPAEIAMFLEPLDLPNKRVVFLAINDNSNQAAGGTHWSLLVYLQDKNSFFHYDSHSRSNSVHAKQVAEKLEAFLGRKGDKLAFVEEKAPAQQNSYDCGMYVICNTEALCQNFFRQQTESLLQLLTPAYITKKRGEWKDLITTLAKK

[7] = target: T3, Heat shock factor protein 1 (Mus musculus, UniProt P38532); assay: decrease of HSF1-responsive luciferase luminescence – cell-based, NIH3T3, dose retest, confirmation (AID 2382); assay type: functional;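 note: NIH3T3 fibroblasts with HSF1-driven luciferase reporter stressed by proteasome inhibitor MG132; luminescence from HSF1-driven luciferase expression after 8 hours of MG132 stress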
T3 sequence (P38532 whole entry): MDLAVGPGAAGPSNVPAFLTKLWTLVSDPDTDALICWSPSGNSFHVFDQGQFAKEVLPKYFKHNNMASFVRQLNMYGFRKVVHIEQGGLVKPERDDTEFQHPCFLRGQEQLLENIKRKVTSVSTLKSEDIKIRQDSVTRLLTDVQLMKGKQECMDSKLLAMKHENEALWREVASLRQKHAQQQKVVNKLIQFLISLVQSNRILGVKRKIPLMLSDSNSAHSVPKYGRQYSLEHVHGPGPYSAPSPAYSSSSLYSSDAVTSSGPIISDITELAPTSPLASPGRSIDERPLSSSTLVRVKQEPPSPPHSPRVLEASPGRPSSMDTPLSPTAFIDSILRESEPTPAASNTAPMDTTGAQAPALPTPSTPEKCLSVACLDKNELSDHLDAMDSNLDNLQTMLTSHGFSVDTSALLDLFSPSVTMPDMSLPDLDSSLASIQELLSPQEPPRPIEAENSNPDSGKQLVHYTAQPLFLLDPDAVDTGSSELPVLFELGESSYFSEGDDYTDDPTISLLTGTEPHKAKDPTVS

[8] = target: T2, Sentrin-specific protease 8; assay type: functional; remark: listed apart in the source
Caspase-6 = target: T4, Caspase-6 (Homo sapiens, UniProt P55212); assay: inhibition of CASP6 peptide cleavage – biochemical, VEID-R110 fluorescence, cherry-pick, dose response (AID 720632)
T4 sequence (P55212 whole entry): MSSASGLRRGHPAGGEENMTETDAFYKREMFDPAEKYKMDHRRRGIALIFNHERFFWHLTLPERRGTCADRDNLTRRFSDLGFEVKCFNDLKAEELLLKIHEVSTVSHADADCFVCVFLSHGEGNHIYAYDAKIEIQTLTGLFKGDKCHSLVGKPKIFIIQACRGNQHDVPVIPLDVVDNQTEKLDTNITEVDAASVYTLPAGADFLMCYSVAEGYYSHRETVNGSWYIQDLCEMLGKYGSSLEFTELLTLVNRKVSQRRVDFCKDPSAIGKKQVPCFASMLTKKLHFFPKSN

Melanocortin receptor 4 = Melanocortin receptor 4 (Homo sapiens, UniProt P32245); assay type: functional, cell-based;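 note: Cell-based assay with luminescence read-out, confirmatory dose-response testing for agonist activity of biased ligands at MC4R; human U2OS cells with tagged receptor and beta-arrestin; potency of agonists that increase receptor coupling to beta-arrestin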
Chain of Melanocortin receptor 4 (P32245 whole entry): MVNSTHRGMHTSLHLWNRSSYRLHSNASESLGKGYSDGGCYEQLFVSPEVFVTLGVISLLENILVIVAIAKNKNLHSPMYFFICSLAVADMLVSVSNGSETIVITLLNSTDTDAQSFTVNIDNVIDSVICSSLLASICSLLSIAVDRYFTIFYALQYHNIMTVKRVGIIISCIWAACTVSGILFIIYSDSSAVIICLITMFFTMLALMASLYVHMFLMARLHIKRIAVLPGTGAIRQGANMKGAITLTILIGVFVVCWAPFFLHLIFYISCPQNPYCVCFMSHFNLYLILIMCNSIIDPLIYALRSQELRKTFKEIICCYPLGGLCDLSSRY

[9] = target: T5, High affinity choline transporter 1 (Homo sapiens, UniProt Q9GZV3); assay: human choline transporter blockers, potency – cell-based, 10-point CRC, membrane potential dye, dose response (AID 588401); assay type: functional;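 note: membrane potential dye fluorescence of choline-evoked depolarization via CHT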
T5 sequence (Q9GZV3 whole entry): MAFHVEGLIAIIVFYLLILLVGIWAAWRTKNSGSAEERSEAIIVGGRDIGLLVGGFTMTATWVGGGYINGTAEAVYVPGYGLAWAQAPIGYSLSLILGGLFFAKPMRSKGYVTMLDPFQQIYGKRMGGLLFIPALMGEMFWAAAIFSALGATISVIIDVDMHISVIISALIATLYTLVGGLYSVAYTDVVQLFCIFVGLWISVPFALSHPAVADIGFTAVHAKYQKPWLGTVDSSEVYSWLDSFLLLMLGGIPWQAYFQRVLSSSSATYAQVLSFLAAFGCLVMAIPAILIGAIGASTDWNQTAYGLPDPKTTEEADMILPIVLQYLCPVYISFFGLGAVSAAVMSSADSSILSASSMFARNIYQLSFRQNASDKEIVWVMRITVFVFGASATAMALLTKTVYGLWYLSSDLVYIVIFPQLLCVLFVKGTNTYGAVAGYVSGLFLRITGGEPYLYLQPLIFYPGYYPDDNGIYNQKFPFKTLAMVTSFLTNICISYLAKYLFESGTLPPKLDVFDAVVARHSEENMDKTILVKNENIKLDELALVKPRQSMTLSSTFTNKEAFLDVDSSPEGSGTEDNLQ

Aminopeptidase N = target: T6, Aminopeptidase N (Plasmodium falciparum FcB1/Columbia, UniProt O96935); assay: malaria alanyl aminopeptidase activity blockers – biochemical, fluorogenic H-Leu-NHMec substrate, 1536-well (AID 1445); design: species or system Plasmodium falciparum 3D7, 3D7
T6 sequence (O96935 whole entry): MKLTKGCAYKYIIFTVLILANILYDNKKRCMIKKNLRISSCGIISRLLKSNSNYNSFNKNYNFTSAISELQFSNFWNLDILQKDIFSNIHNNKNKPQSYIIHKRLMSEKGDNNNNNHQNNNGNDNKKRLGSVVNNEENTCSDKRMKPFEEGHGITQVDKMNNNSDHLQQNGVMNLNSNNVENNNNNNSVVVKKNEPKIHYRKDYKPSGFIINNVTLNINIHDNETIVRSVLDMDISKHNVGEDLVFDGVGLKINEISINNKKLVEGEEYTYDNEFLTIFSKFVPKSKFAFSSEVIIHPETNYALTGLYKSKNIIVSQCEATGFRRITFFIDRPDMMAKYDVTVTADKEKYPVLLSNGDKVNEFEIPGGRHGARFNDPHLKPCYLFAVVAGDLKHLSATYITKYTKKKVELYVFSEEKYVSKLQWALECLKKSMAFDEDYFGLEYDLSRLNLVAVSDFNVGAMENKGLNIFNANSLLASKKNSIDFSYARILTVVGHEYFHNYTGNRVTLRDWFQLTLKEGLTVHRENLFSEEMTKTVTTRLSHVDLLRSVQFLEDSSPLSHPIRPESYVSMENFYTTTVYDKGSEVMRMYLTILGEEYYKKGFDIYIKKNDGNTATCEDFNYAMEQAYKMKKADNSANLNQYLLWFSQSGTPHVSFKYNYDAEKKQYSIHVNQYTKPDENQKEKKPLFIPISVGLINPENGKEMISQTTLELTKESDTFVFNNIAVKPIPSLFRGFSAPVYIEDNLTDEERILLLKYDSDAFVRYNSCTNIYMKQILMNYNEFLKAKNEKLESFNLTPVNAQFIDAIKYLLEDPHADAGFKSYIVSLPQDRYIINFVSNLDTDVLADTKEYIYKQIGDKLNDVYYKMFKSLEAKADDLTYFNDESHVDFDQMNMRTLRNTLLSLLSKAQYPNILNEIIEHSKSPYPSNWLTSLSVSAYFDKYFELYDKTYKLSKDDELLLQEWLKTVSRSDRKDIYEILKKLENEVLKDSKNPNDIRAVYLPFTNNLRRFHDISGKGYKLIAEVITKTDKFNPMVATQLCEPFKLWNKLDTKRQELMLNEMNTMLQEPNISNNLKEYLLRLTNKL

[10] = system: Streptococcus sp. 'group A'; assay: Streptococcus pyogenes SK(-)GAS viability under kanamycin – luminescence, BacTiterGlo, confirmation, counter-screen for streptokinase expression inhibitor project, dose response (AID 1900); assay type: functional, organism-based
Genome polyprotein = Genome polyprotein (dengue virus type 2, UniProt P29990); assay: flavivirus cap methylation enzyme inhibition – biochemical, confirmation dose response, primary screen (AID 588689); assay type: functional
Chain of Genome polyprotein (P29990 2492-3391 limits assumed): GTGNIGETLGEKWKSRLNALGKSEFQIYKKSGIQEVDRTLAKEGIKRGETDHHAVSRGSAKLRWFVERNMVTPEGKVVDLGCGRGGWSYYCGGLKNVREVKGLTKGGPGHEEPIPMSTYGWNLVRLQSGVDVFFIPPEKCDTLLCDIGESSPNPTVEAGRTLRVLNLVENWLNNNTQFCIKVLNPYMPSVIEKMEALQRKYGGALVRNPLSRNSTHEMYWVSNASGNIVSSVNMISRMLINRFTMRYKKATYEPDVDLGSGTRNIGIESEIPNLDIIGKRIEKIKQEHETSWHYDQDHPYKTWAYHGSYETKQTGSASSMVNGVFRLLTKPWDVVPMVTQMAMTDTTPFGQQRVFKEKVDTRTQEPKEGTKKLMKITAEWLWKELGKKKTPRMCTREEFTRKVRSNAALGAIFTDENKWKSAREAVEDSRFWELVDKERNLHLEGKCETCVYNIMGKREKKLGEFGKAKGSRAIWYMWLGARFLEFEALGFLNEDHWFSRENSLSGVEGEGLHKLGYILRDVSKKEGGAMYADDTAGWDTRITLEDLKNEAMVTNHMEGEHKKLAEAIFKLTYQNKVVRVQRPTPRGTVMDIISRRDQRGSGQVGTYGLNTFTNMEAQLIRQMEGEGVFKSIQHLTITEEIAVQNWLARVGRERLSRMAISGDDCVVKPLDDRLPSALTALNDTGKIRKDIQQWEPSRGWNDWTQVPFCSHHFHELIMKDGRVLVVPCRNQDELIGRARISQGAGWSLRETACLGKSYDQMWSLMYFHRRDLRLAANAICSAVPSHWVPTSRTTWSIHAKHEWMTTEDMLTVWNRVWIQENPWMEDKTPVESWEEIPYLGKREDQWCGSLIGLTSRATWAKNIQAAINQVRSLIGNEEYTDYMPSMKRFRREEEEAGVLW

[11] = target: T5, High affinity choline transporter 1; assay: human choline transporter blockers, potency – cell-based, 5-point CRC, membrane potential dye, dose response (AID 504840); assay type: functional
Streptococcus = assay: GAS UMAA2166 growth inhibition – luminescence, BacTiterGlo, counter-screen for streptokinase expression inhibitor project, dose response (AID 1915); assay type: functional, organism-based;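 note: potency for reduction of bacterial viability or growth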
Streptokinase A = target: T7, Streptokinase A (Streptococcus pyogenes serotype M1, UniProt P10520); assay: viability-normalized secreted streptokinase activity reduction – plasminogen activation absorbance, OD405, dose response (AID 1914); assay type: functional, Streptococcus pyogenes M1 GAS;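 note: secreted streptokinase activity via plasminogen activation per viability signal from cell pellet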
T7 sequence (P10520 whole entry): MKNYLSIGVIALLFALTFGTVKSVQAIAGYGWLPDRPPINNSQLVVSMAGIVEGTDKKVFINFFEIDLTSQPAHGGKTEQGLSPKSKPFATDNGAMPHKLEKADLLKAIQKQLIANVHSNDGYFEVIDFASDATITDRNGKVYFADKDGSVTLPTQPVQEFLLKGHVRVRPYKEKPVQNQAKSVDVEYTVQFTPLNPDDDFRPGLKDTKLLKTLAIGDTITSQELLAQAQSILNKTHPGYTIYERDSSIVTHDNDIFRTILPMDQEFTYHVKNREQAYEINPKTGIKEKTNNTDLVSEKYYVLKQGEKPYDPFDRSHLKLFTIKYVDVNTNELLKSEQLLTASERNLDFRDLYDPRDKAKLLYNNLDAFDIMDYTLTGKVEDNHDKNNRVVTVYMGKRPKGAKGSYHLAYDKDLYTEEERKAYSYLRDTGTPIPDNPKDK

T1 sequence (P07550 whole entry): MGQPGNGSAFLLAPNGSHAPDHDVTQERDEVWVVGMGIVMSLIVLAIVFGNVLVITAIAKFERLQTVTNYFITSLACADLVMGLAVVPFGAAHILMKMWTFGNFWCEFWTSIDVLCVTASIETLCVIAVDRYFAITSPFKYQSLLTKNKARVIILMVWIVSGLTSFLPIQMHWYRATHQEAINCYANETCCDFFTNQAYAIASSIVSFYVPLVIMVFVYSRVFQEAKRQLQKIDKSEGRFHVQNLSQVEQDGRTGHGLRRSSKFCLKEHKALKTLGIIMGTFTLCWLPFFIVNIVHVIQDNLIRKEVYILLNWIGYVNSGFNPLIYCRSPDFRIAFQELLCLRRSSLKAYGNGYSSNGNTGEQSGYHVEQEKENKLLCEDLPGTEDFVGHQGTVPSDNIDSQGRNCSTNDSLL

Which EC50 [1] does the source give for `Cc1ccc(SCC(=O)Nc2ccc(-c3nc4ccccc4[nH]3)cc2)cc1` here?
Its EC50 is 0.00682 µM (active).

And the EC50 [2]?
The EC50 was 0.0116 µM (active).

With `COc1ccc(NC(=S)N(CCCN2CCC(C)CC2)Cc2cccs2)cc1Cl` as the compound, how does the IC50 [3] read?
Its IC50 is 4.18 µM (active).

And the IC50 [4]?
Its IC50 is 6.76 µM (active).

What about the IC50 [5] of the same compound?
Its IC50 is 55.6 µM (inactive).

Which results are given for `Clc1ccc(Cl)c(-c2nc(-c3ccncc3)no2)c1`?
IC50 [3]: 25.4 µM (inactive); IC50 [4]: 6.55 µM (active); IC50 [5]: > 80 µM (inactive)

How did the IC50 [6] turn out when `O=C1Cc2ccccc2C(=O)N1c1cccc(Cl)c1` was run?
Its IC50 is 6.08 µM (active).

What about the EC50 [7] of the same compound?
Its EC50 is > 195 µM (not active).

What about the IC50 [8] of the same compound?
The IC50 was > 100 µM (inactive).

What about the AC50 (Caspase-6) of the same compound?
Its AC50 is 35.6 µM (active).

For `COc1ccc2nc(NC(=O)CSc3nc4cccnc4n3C)sc2c1`, which EC50 (Melanocortin receptor 4) is on record?
The EC50 was > 89.2 µM (inactive).

How did the IC50 [9] turn out when `COc1cc(/C=C2\SC(NS(=O)(=O)c3ccccc3)=NC2=O)c([N+](=O)[O-])cc1OC` was run?
The IC50 was 8.91 µM (active).

And the IC50 (Aminopeptidase N)?
The IC50 was 25.5 µM (active).

And the EC50 [10]?
The EC50 was 25.6 µM (active).

What about the IC50 (Genome polyprotein) of the same compound?
The IC50 was 43.4 µM (active).

What about the IC50 [11] of the same compound?
Its IC50 is 4.17 µM (active).

What about the EC50 (Streptococcus) of the same compound?
The EC50 was > 150 µM (not active).

What about the EC50 (Streptokinase A) of the same compound?
The EC50 was > 150 µM (not active).
